These results are taken from patent publication EP2717057A1, “Morphine-6-glucuronide derivatives, immunogens and immunoassay” (Cisbio Bioassays, priority 2012, dated 2014).

Where only a bound is given, the exact number is not on record here.

This assay deals with rabbit anti-M6G polyclonal antibody. As to the kind of experiment: Cross-reactivity of the competitive M6G-ELISA (M6G-HRP tracer, biotinylated antibody). It counts as binding. Conditions: for Kd: approximate, calculated from Figure 1, competing compound diluted in NBCS at 1, 10, 100 or 1000 nM, one site competition model, read-out: affinity constant K; for K relative to M6G (X as high as M6G): ratio of the compound's K to the K of M6G. Here is the method: The rabbit anti-M6G polyclonal antibody was biotinylated for the ELISA assay. After dialysis in buffer carbonate 100 mM pH 9, biotin-NHS dissolved in DMF was added to the antibody. After stirring for 30 min, the free biotin was removed by dialysis in PBS 11 mM pH 7.2. Aliquots of labeled antibody were frozen and stored at -20°C. Then, the biotinylated antibody was diluted at ELISA working concentration determined at 0.25µg.mL^-1 in PBS 11 mM pH 7.2 + 1% BSA, aliquoted and stored at -20°C.
96-well microplates were coated with 200 µL/well of a 10 µg.mL^-1 BSA-biotin solution in PBS and incubated for 24 h at room temperature. Then after aspiration 200 µL/well of 10 µg.mL^-1 of avidin solution in PBS were distributed and incubated for 24 h at room temperature. After washing with NaCl, Tween® 0.005%, 200 µL/well of saturation solution was added (PBS + 2% Sorbitol + 0.5% Glycine + 0.1% BSA + 0.065% NaN3) and incubated for 24 h at 4°C. After an aspiration, the microplates were dried at 20°C in a ventilated room for 12 h, packed with a dessicant and stored at 4°C.
A competitive assay format was used for the M6G-ELISA. 100 µL of biotinylated antibody were added and incubated for 2 h at room temperature under 400 rpm stirring. After incubation, the wells were emptied and 3 wash cycles with H2O + 0.05% Tween® were applied. 50 µL of calibrators, controls and samples were added in duplicate. If necessary, samples were prediluted in dilution buffer (PBS + 0.1% BSA), then 50 µL of M6G-HRP conjugate was distributed in all the wells and incubated for 2h at room temperature, under 400rpm stirring. After a final washing step, 100 µL of HRP substrate (TMB) were added, and incubated for 10 min at room temperature, under 400rpm stirring. The chromogenic reaction was stopped with 100 µL H2SO4 1 N, and the absorbance of each sample was determined at 450 nm and 620 nm (reference wavelength). The results were analyzed using GraphPad Prism Software, model one site competition.
The cross-reactivity of the assay described in example 5 with several compounds that are structurally close to M6G was evaluated. For this purpose, the assay was performed with 50 µL of samples constituted of competing compounds diluted in NBCS at the concentrations of: 1 nM, 10 nM, 100 nM or 1000 nM.

With `CN1CC[C@]23c4c5ccc(O[C@@H]6O[C@H](C(=O)O)[C@@H](O)[C@H](O)[C@H]6O)c4O[C@H]2[C@@H](O[C@@H]2O[C@H](C(=O)O)[C@@H](O)[C@H](O)[C@H]2O)C=C[C@H]3[C@H]1C5` [M3,6G, Morphine-3-6-diglucuronide], the Kd is 3.4 nM.
Regarding `CN1CC[C@]23c4c5ccc(O[C@@H]6O[C@H](C(=O)O)[C@@H](O)[C@H](O)[C@H]6O)c4O[C@H]2[C@@H](O)C=C[C@H]3[C@H]1C5` [M3G, Morphine-3-glucuronide], the Kd is 670 nM and the “K relative to M6G (X as high as M6G)” value is “more than 100 X”.
Take `CN1CC[C@]23c4c5ccc(O)c4O[C@H]2[C@@H](O[C@@H]2O[C@H](C(=O)O)[C@@H](O)[C@H](O)[C@H]2O)C=C[C@H]3[C@H]1C5` [M6G, Morphine-6-glucuronide]: the Kd is 5.9 nM.
For `COc1ccc2c3c1O[C@H]1[C@@H](O)C=C[C@H]4[C@@H](C2)N(C)CC[C@@]341` [codeine, Codeine], the Kd is 220 nM and the “K relative to M6G (X as high as M6G)” value stood at 35 X.
For the molecule `COc1ccc2c3c1O[C@H]1[C@@H](O)C=C[C@H]4[C@@H](C2)NCC[C@@]341` [norcodeine, Norcodeine], the Kd was more than 1000 nM.
Turning to `Oc1ccc2c3c1O[C@H]1[C@@H](O)C=C[C@H]4[C@@H](C2)NCC[C@@]341` [normorphine, Normorphine], the Kd was more than 1000 nM.
